Here are results for one molecule from patent US9169251B2, “Pyrrolopyridine derivatives and their use as CRTH2 antagonists” (Novartis AG, priority 2004, dated 2015).

SMILES strings stand for the structures.

This test addresses T1, CRTh2 receptor (Homo sapiens, UniProt Q9Y5Y4).
T1 construct: expressed in transfected cells; host or cells: CHO.K1 (Chinese Hamster Ovary) cells, line CHO.K1-CRTh2
T1 sequence (Q9Y5Y4 1-395): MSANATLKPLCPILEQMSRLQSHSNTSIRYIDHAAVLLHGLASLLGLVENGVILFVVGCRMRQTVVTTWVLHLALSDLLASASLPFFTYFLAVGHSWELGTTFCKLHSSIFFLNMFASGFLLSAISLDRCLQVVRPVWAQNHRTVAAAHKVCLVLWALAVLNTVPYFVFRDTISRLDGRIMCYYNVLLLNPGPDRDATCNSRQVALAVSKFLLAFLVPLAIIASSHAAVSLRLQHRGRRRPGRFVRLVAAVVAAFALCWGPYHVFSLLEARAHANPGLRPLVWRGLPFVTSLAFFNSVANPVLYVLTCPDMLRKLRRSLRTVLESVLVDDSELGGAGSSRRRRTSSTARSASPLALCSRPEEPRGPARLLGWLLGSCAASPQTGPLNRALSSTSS
Kind of test: Filtration binding assay: competition with [3H]-PGD2 on CHO.K1-CRTh2 membranes (called SPA binding assay). The conditions noted are these: [3H]-PGD2 2.5 nM. The procedure: Filtration Binding Assay Protocol
The binding of CRTh2 antagonists is determined using membranes prepared from human CRTh2-expressing Chinese Hamster Ovary cells (CHO.K1-CRTh2). To produce cell membranes CHO.K1-CRTh2 cells cultured in roller bottles are harvested using cell dissociation buffer (Invitrogen). The cells are pelleted by centrifugation (167 g, 5 min). […] At 4° C. cells are homogenized using a Polytron® (IKA Ultra Turrax T25) for 5 bursts of 1 second.
The binding of [^3H]-PGD2 (157 Ci/mmol) to CHO.K1-CRTh2 membranes is determined in the absence (total binding) and presence (non-specific binding) of unlabelled PGD2 (1 μM). Subtraction of the cpm (counts per minute) of [^3H]-PGD2 binding in presence of excess unlabelled PGD2 from that observed in the absence of excess unlabelled PGD2 is defined as specific binding. […]
The plates are incubated at room temperature on a shaker for 1 hour, and then harvested (Tomtec Harvester 9600) onto GF/C filter plates using wash buffer (10 mM HEPES-KOH, pH 7.4). […] Plates are then counted using a Packard Top Count instrument, Plates are then read on the Packard Topcount with the 3H Scintillation program (1 min per well). […]
Ki values are determined using Sigma Plot™ software, using the Cheng-Prussoff equation. […]

Usually Ki stands for the dissociation constant of the complex between target and ligand, obtained from inhibition or displacement. A high value points to lower affinity.

In the case of `Cc1c(CC(=O)O)c2cccnc2n1Cc1ccc(S(C)(=O)=O)cc1C(F)(F)F` [Example 95, [1-(4-Methanesulfonyl-2-trifluoromethyl-benzyl)-2-methyl-1H-pyrrolo[2,3-b]pyridin-3-yl]-acetic acid], the affinity corresponds to a Ki of 4 nM.
